Results as given in PubChem BioAssay (NCI).
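These data come from cells grown in 96-well plates and exposed to compound for 48 hours at five concentrations. GI50: concentration for 50% inhibition of growth. Definition used: TGI = concentration required for complete inhibition of growth.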

How the values were obtained:
Assay in all cases: NCI anticancer screen, dose series, 48 h
SF-268 CNS = test system: SF-268 CNS
SF-539 CNS = test system: SF-539 CNS
LOX IMVI melanoma = test system: LOX IMVI melanoma
COLO 205 colon = test system: COLO 205 colon
CAKI-1 renal = test system: CAKI-1 renal
SN12C renal = test system: SN12C renal
SK-OV-3 ovarian = test system: SK-OV-3 ovarian
HT29 colon = test system: HT29 colon
BT-549 breast = test system: BT-549 breast
NCI/ADR-RES ovarian = test system: NCI/ADR-RES ovarian

Row | Compound | TGI (SF-268 CNS) [µM] | TGI (SF-539 CNS) [µM] | TGI (LOX IMVI melanoma) [µM] | TGI (COLO 205 colon) [µM] | TGI (CAKI-1 renal) [µM] | TGI (SN12C renal) [µM] | TGI (SK-OV-3 ovarian) [µM] | TGI (HT29 colon) [µM] | TGI (BT-549 breast) [µM] | TGI (NCI/ADR-RES ovarian) [µM] | GI50 (BT-549 breast) [µM] | GI50 (NCI/ADR-RES ovarian) [µM] | GI50 (SF-268 CNS) [µM] | GI50 (SF-539 CNS) [µM] | GI50 (LOX IMVI melanoma) [µM] | GI50 (COLO 205 colon) [µM] | GI50 (CAKI-1 renal) [µM] | GI50 (SN12C renal) [µM] | GI50 (SK-OV-3 ovarian) [µM] | GI50 (HT29 colon) [µM]
1 | COc1cc2cc(OC)c3cc4c(cc3c2c(OC)c1OC)OCO4 | > 100 | > 55.4 | 31 | 44.4 | > 100 | > 100 | > 100 | 30.7 | – | – | – | – | – | – | – | – | – | – | – | –
2 | O=C1CC(NC(=O)C(F)(F)F)c2c(Br)sc(N3CCNCC3)c21 (stereo not drawn) | > 100 | > 100 | > 100 | > 100 | > 100 | > 100 | > 100 | > 100 | > 100 | > 100 | – | – | – | – | – | – | – | – | – | –
3 | Cc1ccc(CN2CCC(C(=O)Nc3ccc(-c4cc5ccccc5[nH]4)cc3)CC2)o1 | > 100 | > 100 | > 100 | > 100 | > 100 | > 100 | > 100 | > 100 | > 100 | > 100 | > 100 | > 100 | > 100 | > 100 | > 100 | 71 | > 100 | > 100 | > 100 | 94.2
4 | Cc1c(C(=O)CC(=O)C(=O)Nc2ccccc2C(F)(F)F)[n+](=O)c2ccccc2n1[O-] | 69 | 46.2 | 63.8 | 32.2 | > 100 | 54.4 | > 100 | 57.2 | – | – | – | – | – | – | – | – | – | – | – | –
5 | CNS(=O)(=O)NNS(=O)(=O)c1ccccc1 | > 100 | > 100 | > 100 | > 100 | > 100 | > 100 | > 100 | > 100 | – | – | – | – | – | – | – | – | – | – | – | –
6 | NC1=NCCC1(c1ccccc1)c1ccccn1 (stereo not drawn) | > 100 | > 100 | – | > 100 | > 100 | > 100 | > 100 | > 100 | – | – | – | – | – | – | – | – | – | – | – | –
7 | NS(=O)(=O)c1ccc2c(c1)OCCOCCOCCOCCO2 | > 100 | > 100 | > 100 | > 100 | > 100 | > 100 | > 100 | > 100 | > 100 | – | – | – | – | – | – | – | – | – | – | –
8 | O=C(CCc1nc(=S)[nH][nH]1)Nc1cc(Cl)c(Cl)cc1Cl | > 100 | > 100 | > 100 | > 100 | > 100 | > 100 | > 100 | > 100 | – | – | – | – | – | – | – | – | – | – | – | –
9 | NC(=O)NO.O.O.O.O.O.O.O.O.O.O.O.[Ge].[Ge].[Ge].[Ge].[Ge].[O]=[Ge].[O]=[Ge].[O]=[Ge].[O]=[Ge].[O]=[Ge][OH] | > 100 | > 100 | > 100 | > 100 | > 100 | > 100 | > 100 | > 100 | – | – | – | – | – | – | – | – | – | – | – | –
10 | CCCCCCCCCCCC(=O)OCCOCCOCCOCCOCCOCc1ccccc1 | > 100 | – | > 100 | > 100 | > 100 | > 100 | > 100 | > 100 | – | – | – | – | – | – | – | – | – | – | – | –
11 | CCOC(=O)C(C)(C)Oc1ccc2c(-c3ccccc3)cc(=O)oc2c1 | > 100 | 86.5 | 49.4 | 42.7 | – | > 100 | – | – | – | – | – | – | – | – | – | – | – | – | – | –
12 | CN1CCN(C2=NCCO2)CC1 | > 100 | > 100 | > 100 | > 100 | > 100 | > 100 | > 100 | > 100 | – | > 100 | – | – | – | – | – | – | – | – | – | –
13 | CCOC(=O)/C=C/CC(C)(C)CCOC(C)=O | > 10 | > 10 | > 10 | > 10 | > 10 | > 10 | > 10 | > 10 | – | > 10 | – | – | – | – | – | – | – | – | – | –
14 | CN(C)N=Nc1ccc(C(N)=O)cc1 | > 100 | > 100 | > 100 | > 100 | > 100 | > 100 | > 100 | > 100 | – | – | – | – | – | – | – | – | – | – | – | –
15 | COC(=O)/C=C1\S/C(=N\NC(=O)c2cc3ccc2/C=C\c2ccc(cc2)/C=C\3)N(c2ccccc2)C1=O | 11.2 | 3.32 | 3.37 | – | 30 | 5.94 | 75.3 | 4.07 | 5.35 | 10.6 | 2.22 | 2.92 | 3.09 | 1.79 | 1.69 | – | 3.74 | 2.27 | 3.55 | 1.93
16 | Cc1ccc(Cl)c2c(N=Nc3ccccc3[N+](=O)[O-])c(O)[nH]c12 | > 100 | 48.6 | > 100 | > 100 | > 100 | > 100 | > 100 | > 100 | – | > 100 | – | – | – | – | – | – | – | – | – | –
17 | Clc1ccccc1C(SCc1ccccc1)SCc1ccccc1 | > 100 | > 100 | – | > 100 | > 100 | > 100 | – | > 100 | > 100 | > 100 | – | – | – | – | – | – | – | – | – | –
18 | O=C(CCNC12CC3CC(CC(C3)C1)C2)c1ccccc1 | > 100 | 40.3 | – | 34.9 | – | 36.3 | – | 23.6 | 85.3 | 59.8 | – | – | – | – | – | – | – | – | – | –
19 | O=C(O)CCNCCCNCCC(=O)O | > 100 | > 100 | > 100 | > 100 | > 100 | > 100 | > 100 | > 100 | – | – | – | – | – | – | – | – | – | – | – | –
20 | COc1cc2ccnc([C@@H](OC(=O)c3ccccc3)c3ccc(OC)c(OC)c3OC)c2cc1OC | > 100 | > 100 | > 100 | > 100 | > 100 | > 100 | > 100 | > 100 | – | – | – | – | – | – | – | – | – | – | – | –
21 | CCN(CC)CCSc1c2ccccc2nc2cc(NCC(=O)Nc3ccccc3-c3ccccc3NC(=O)CNc3ccc4c(SCCN(CC)CC)c5ccccc5nc4c3)ccc12 | > 100 | > 100 | > 100 | > 55.3 | > 100 | > 100 | > 100 | > 100 | – | – | – | – | – | – | – | – | – | – | – | –
22 | O=C(Nc1nc2ccc([N+](=O)[O-])cc2s1)C(=O)C(C1OC(=O)c2ccccc21)[N+](=O)[O-] (stereo not drawn) | > 100 | > 100 | > 100 | > 100 | > 100 | > 100 | > 100 | > 100 | – | – | – | – | – | – | – | – | – | – | – | –
